Results: US10836732B2, “Compounds for combating arthropods” (priority 2013, dated 2020)

Assays:
Rhipicephalus sanguineus = Rhipicephalus sanguineus - in vitro contact tests with adult brown dog ticks; format: in vivo; settings: 5 μg/cm^2, adult dog ticks, after 48 h
Method: (§1) For the coating of the test tubes, 9 mg of active ingredient are first dissolved in 1 ml of acetone p.a. and then diluted to the desired concentration with acetone p.a. 250 μl of the solution are distributed homogeneously on the inner walls and base of a 25 ml test tube by turning and rocking on an orbital shaker (rocking rotation at 30 rpm for 2 h). With 900 ppm active ingredient solution and internal surface 44.7 cm^2, given homogeneous distribution, an area-based dose of 5 μg/cm^2 is achieved.
After the solvent has evaporated off, the tubes are populated with 5-10 adult dog ticks (Rhipicephalus sanguineus), sealed with a perforated plastic lid and incubated in a horizontal position in the dark at room temperature and ambient humidity. After 48 h, efficacy is determined To this end, the ticks are knocked to the floor of the tube and incubated on a hotplate at 45-50° C. for not more than 5 min Ticks which remain motionless on the floor or move in such an uncoordinated manner that they are unable to deliberately avoid the heat by climbing upwards are considered to be dead or moribund.
An efficacy of 100% means that all the ticks were dead or moribund. 0% efficacy means that none of the ticks had been harmed.

Ctenocephalides felis [1] = assay: Ctenocephalides felis - in vitro contact tests with adult cat fleas; format: in vivo; settings: 5 μg/cm^2, adult cat fleas, after 48 h
Method: as §1, with “surface area” for “surface”
After the solvent has evaporated off, the tubes are populated with 5-10 adult cat fleas (Ctenocephalides felis), sealed with a perforated plastic lid and incubated in a horizontal position at room temperature and ambient humidity. After 48 h, efficacy is determined. To this end, the test tubes are stood upright and the fleas are knocked to the base of the tube. Fleas which remain motionless at the base or move in an uncoordinated manner are considered to be dead or moribund.
100% efficacy means that all the fleas were dead or moribund. 0% efficacy means that no fleas were harmed.

Ctenocephalides felis [2] = assay: Ctenocephalides felis - oral test; format: in vivo; settings: 100 ppm in citrated cattle blood, adult cat fleas, after 2 days
Method: (§2) Solvent: dimethyl sulphoxide
For the purpose of producing an appropriate active ingredient formulation, 10 mg of active ingredient are mixed with 0.5 ml of dimethyl sulphoxide. Dilution with citrated cattle blood gives the desired concentration.
About 20 unfed adult cat fleas (Ctenocephalides felis) are placed into a chamber which is closed at the top and bottom with gauze. A metal cylinder whose bottom end is closed with parafilm is placed onto the chamber. The cylinder contains the blood/active ingredient preparation, which can be imbibed by the fleas through the parafilm membrane.
After 2 days, the kill in % is determined 100% means that all of the fleas have been killed; 0% means that none of the fleas have been killed.

Lucilia cuprina = Lucilia cuprina - test; format: in vivo; settings: 100 ppm, L1 larvae, after 2 days
Method: as §2
(§3) To produce an appropriate active ingredient formulation, 10 mg of active ingredient are mixed with 0.5 ml of dimethyl sulphoxide, and the concentrate is diluted with water to the desired concentration.
About 20 L1 larvae of the Australian sheep blowfly (Lucilia cuprina) are transferred into a test vessel containing minced horsemeat and the active ingredient preparation of the desired concentration.
After 2 days, the kill in % is determined 100% means that all the larvae have been killed; 0% means that none of the larvae have been killed.

[3] = system: Boophilus microplus Parkhurst strain, SP-resistant; assay: Boophilus microplus - dip test; format: in vivo; settings: 100 ppm, adult engorged female cattle ticks, after 7 days
Method: Test animals: cattle ticks (Boophilus microplus) Parkhurst strain, SP-resistant
as §2
10 mg of active ingredient are dissolved in 0.5 ml of dimethyl sulphoxide. For the purpose of producing a suitable formulation, the active ingredient solution is diluted with water to the concentration desired in each case.
This active ingredient formulation is pipetted into tubes. 8-10 adult engorged female cattle ticks (Boophilus microplus) are transferred into a further tube with holes. The tube is immersed into the active ingredient formulation, and all the ticks are completely wetted. After the liquid has run out, the ticks are transferred on filter discs into plastic dishes and stored in a climate-controlled room.
(§4) Efficacy is assessed after 7 days by laying of fertile eggs. Eggs which are not visibly fertile are stored in a climate-controlled cabinet until the larvae hatch after about 42 days. An efficacy of 100% means that none of the ticks has laid any fertile eggs; 0% means that all the eggs are fertile.

Boophilus microplus = Boophilus microplus - injection test; format: in vivo; settings: 20 μg/animal, injected into engorged adult female cattle ticks, after 7 days
Method: as §2
To produce an appropriate active ingredient formulation, 10 mg of active ingredient are mixed with 0.5 ml of solvent and the concentrate is diluted with solvent to the desired concentration.
1 μl of the active ingredient solution is injected into the abdomen of 5 engorged adult female cattle ticks (Boophilus microplus). The animals are transferred into dishes and kept in a climate-controlled room.
as §4

Tetranychus urticae = Tetranychus urticae - spray test, OP-resistant; format: in vivo; settings: bean leaf discs, after 6 days
Method: (§5) Solvent: 78.0 parts by weight of acetone
(§6) • 1.5 parts by weight of dimethylformamide Emulsifier: alkylaryl polyglycol ether
(§7) To produce an appropriate active ingredient formulation, 1 part by weight of active ingredient is dissolved using the specified parts by weight of solvent and made up with water containing an emulsifier concentration of 1000 ppm until the desired concentration is attained. To produce further test concentrations, the preparation is diluted with emulsifier-containing water.
Discs of bean leaves (Phaseolus vulgaris) infested by all stages of the greenhouse red spider mite (Tetranychus urticae) are sprayed with an active ingredient formulation of the desired concentration.
After 6 days, efficacy in % is determined 100% means that all the spider mites have been killed; 0% means that none of the spider mites have been killed.

[4] = logP by HPLC on reversed-phase column (C18), EEC Directive 79/831 Annex V.A8; format: physicochemical
Amblyomma hebraeum = assay: Amblyomma hebaraeum - test (tick nymphs, immersion); format: in vivo; settings: 100 ppm, tick nymphs immersed one minute, after 42 days
Method: as §2, §3
Tick nymphs (Amblyomma hebraeum) are placed into perforated plastic beakers and immersed in the desired concentration for one minute. The ticks are transferred on filter paper into a Petri dish and stored in a climate-controlled cabinet.
After 42 days, the kill in % is determined 100% means that all of the ticks have been killed; 0% means that none of the ticks have been killed.

Phaedon cochleariae = Phaedon cochleariae - spray test; format: in vivo; settings: Chinese cabbage leaf discs, after 7 days
Method: as §5, §6, §7
Discs of Chinese cabbage leaves (Brassica pekinensis) are sprayed with an active ingredient formulation of the desired concentration and, after drying, populated with larvae of the mustard beetle (Phaedon cochleariae).
After 7 days, efficacy in % is determined 100% means that all the beetle larvae have been killed; 0% means that no beetle larvae have been killed.

Musca domestica = Musca domestica - test; format: in vivo; settings: 100 ppm, adult houseflies, after 2 days
Method: as §2, §3
Vessels containing a sponge treated with sugar solution and the active ingredient formulation of the desired concentration are populated with 10 adult houseflies (Musca domestica).
After 2 days, the kill in % is determined 100% means that all of the flies have been killed; 0% means that none of the flies have been killed.

Spodoptera frugiperda = Spodoptera frugiperda - spray test; format: in vivo; settings: maize leaf discs, after 7 days
Method: as §5, §6, §7
Leaf discs of maize (Zea mays) are sprayed with an active ingredient formulation of the desired concentration and, after drying, populated with caterpillars of the armyworm (Spodoptera frugiperda).
After 7 days, efficacy in % is determined. 100% means that all the caterpillars have been killed; 0% means that no caterpillars have been killed.

[5] = system: Anopheles funestus strain FUMOZ-R; assay: Anopheles test (ANPHFU surface treatment); format: in vivo; settings: 20 mg/m^2, glazed tile, exposure 30 minutes, 24 hours after contact
Method: Solvent: acetone+2000 ppm rapeseed oil methyl ester (RME)
To produce an appropriate active ingredient formulation, the active ingredient is dissolved in the solvent (2 mg/ml). The active ingredient formulation is pipetted onto a glazed tile and, after it has dried off, adult mosquitoes of the species Anopheles funestus strain FUMOZ-R (Hunt et al., Med Vet Entomol. 2005 September; 19(3):271-5) are placed onto the treated tile. The exposure time is 30 minutes.
24 hours after contact with the treated surface, mortality in % is determined 100% means that all mosquitoes have been killed; 0% means that none of the mosquitoes have been killed.

Myzus persicae = Myzus persicae - spray test; format: in vivo; settings: 500 g/ha, Chinese cabbage leaf discs, after 6 days
Method: Solvent: 78 parts by weight of acetone
as §6, §7
Discs of Chinese cabbage leaves (Brassica pekinensis) infested by all stages of the green peach aphid (Myzus persicae) are sprayed with an active ingredient formulation of the desired concentration.
After 6 days, efficacy in % is determined. 100% means that all the aphids have been killed; 0% means that none of the aphids have been killed.

| SMILES | efficacy (dead or moribund) (Rhipicephalus sanguineus) | efficacy (dead or moribund) (Ctenocephalides felis [1]) | efficacy (kill in %) (Ctenocephalides felis [2]) | efficacy (kill in %) (Lucilia cuprina) | efficacy (no fertile eggs laid) [3] | efficacy (no fertile eggs laid) (Boophilus microplus) | efficacy (spider mites killed) (Tetranychus urticae; 100 g/ha) | logP [4] | efficacy (kill in %) (Amblyomma hebraeum) | efficacy (beetle larvae killed) (Phaedon cochleariae; 100 g/ha) | efficacy (kill in %) (Musca domestica) | efficacy (caterpillars killed) (Spodoptera frugiperda; 100 g/ha) | efficacy (mortality in %) [5] | efficacy (spider mites killed) (Tetranychus urticae; 500 g/ha) | efficacy (beetle larvae killed) (Phaedon cochleariae; 500 g/ha) | efficacy (aphids killed) (Myzus persicae) | efficacy (caterpillars killed) (Spodoptera frugiperda; 500 g/ha) |
| --- | --- | --- | --- | --- | --- | --- | --- | --- | --- | --- | --- | --- | --- | --- | --- | --- | --- |
| O=C(NC1CC1)c1cc(-n2cc(-c3c(Cl)cc(C(F)(C(F)(F)F)C(F)(F)F)cc3Cl)nn2)ccc1Cl [I-T48-3] | 100% | 100% | 100% | 100% | 90% | 100% | 100% | 4.3 | 90% | 100% | 100% | 100% | – | – | – | – | – |
| N#CC1(NC(=O)c2cc(-n3cc(-c4c(Cl)cc(C(F)(C(F)(F)F)C(F)(F)F)cc4Cl)nn3)ccc2Cl)CC1 [I-T48-4] | 100% | 100% | 100% | 100% | – | 100% | 100% | 4.2 | – | 100% | 100% | 100% | 90-100% | – | – | – | – |
| Cc1cc(C(F)(C(F)(F)F)C(F)(F)F)cc(C)c1-c1cn(-c2ccc(Cl)c(C(=O)NCC(F)(F)F)c2)nn1 [I-T48-5] | – | – | 100% | 100% | – | 100% | – | 4.5 | – | 100% | 100% | 100% | – | – | – | – | – |
| Cc1cc(C(F)(C(F)(F)F)C(F)(F)F)cc(C)c1-c1cn(-c2ccc(Cl)c(C(=O)NC3CSC3)c2)nn1 [I-T48-6] | – | – | 100% | 100% | – | 100% | 100% | 4.5 | – | 100% | 100% | 100% | – | – | – | – | – |
| Cc1cc(C(F)(C(F)(F)F)C(F)(F)F)cc(C)c1-c1cn(-c2cnc(Cl)c(C(=O)NC3CC3)c2)nn1 [I-T48-7] | 100% | – | 100% | 100% | 100% | 100% | – | – | 100% | – | 100% | – | – | 100% | 100% | 100% | 100% |
| Cc1cc(C(F)(C(F)(F)F)C(F)(F)F)cc(C)c1-c1cn(-c2cnc(Cl)c(C(=O)NC3(C#N)CC3)c2)nn1 [I-T48-8] | – | – | 100% | – | 100% | 100% | – | – | 100% | – | – | – | – | 100% | 100% | 100% | 100% |
